Our source for the surviving fraction values is the supplement of paper PMC6045584.

± gives the standard deviation of the averaged measurements.

Compound in one experiment: CNC(=O)c1cc(Oc2ccc(NC(=O)Nc3ccc(Cl)c(C(F)(F)F)c3)cc2)ccn1 [SORAFENIB]
The experiment in a line: surviving fraction relative to DMSO-only wells; higher = less growth inhibition. Particulars: exposure time: 5 days. Summed up:
(§1)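 Log-phase tumour cell lines were seeded at 250–500 cells per well in 384-well plates. After 24 hours they were exposed continuously for five days to inhibitors at 0.5, 1, 5, 10, 50, 100, 500 and 1000 nM. Viability was read by CellTiter-Glo luminescence after 10 minutes at room temperature, and surviving fraction is luminescence normalised to the median of DMSO-only wells. Each line was screened three times and kept only if replicate Pearson r >0.7 and median Z' >0.3.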

Compound in another experiment: NS(=O)(=O)OC[C@@H]1C[C@@H](n2ccc3c(N[C@H]4CCc5ccccc54)ncnc32)C[C@@H]1O [MLN-4924]
The description is as above. Particulars: exposure time: 5 days. Summed up: as §1

Regarding HCC38 BREAST, the surviving fraction with SORAFENIB (0.5 nM) was found to be 1.19 ± 0.19; in the experiment with SORAFENIB (5 nM) it was 1.27 ± 0.14; with SORAFENIB (10 nM), 1.18 ± 0.16; in the experiment with SORAFENIB (50 nM) it was 1.26 ± 0.29; in the experiment with SORAFENIB (100 nM) it was 1.32 ± 0.21; with SORAFENIB (500 nM), 1.29 ± 0.26. Moreover, the surviving fraction amounted to 1.22 ± 0.26 with SORAFENIB (1000 nM); 1.35 ± 0.069 with MLN-4924 (0.5 nM); 1.48 ± 0.14 in the experiment with MLN-4924 (1 nM); 1.02 ± 0.14 with MLN-4924 (5 nM); 1.22 ± 0.18 with MLN-4924 (10 nM); 0.624 ± 0.064 with MLN-4924 (50 nM). Moreover, the surviving fraction was determined as 0.269 ± 0.025 with MLN-4924 (100 nM), 0.0757 ± 0.0075 with MLN-4924 (500 nM) and 0.0803 ± 0.013 with MLN-4924 (1000 nM).

For HMLE3 BREAST, the surviving fraction with SORAFENIB (0.5 nM) was 0.899 ± 0.033; with SORAFENIB (1 nM) it was 1 ± 0.0095; in the experiment with SORAFENIB (5 nM), 1.08 ± 0.084; with SORAFENIB (10 nM), 1.1 ± 0.045; in the experiment with SORAFENIB (50 nM), 1.3 ± 0.044; with SORAFENIB (100 nM), 1.41 ± 0.045. Besides, the surviving fraction came to 1.41 ± 0.021 in the experiment with SORAFENIB (500 nM); 1.41 ± 0.079 in the experiment with SORAFENIB (1000 nM); 1.04 ± 0.046 with MLN-4924 (0.5 nM); 1.08 ± 0.031 with MLN-4924 (1 nM); 1.07 ± 0.016 in the experiment with MLN-4924 (5 nM); 1.25 ± 0.019 with MLN-4924 (10 nM). Also, the surviving fraction with MLN-4924 (50 nM) is 1.07 ± 0.016; in the experiment with MLN-4924 (100 nM), 0.698 ± 0.024; with MLN-4924 (500 nM) it was 0.175 ± 0.017; with MLN-4924 (1000 nM) it was 0.114 ± 0.025.

In the case of HMT3552 BREAST, the surviving fraction in the experiment with SORAFENIB (0.5 nM) worked out at 1.1; with SORAFENIB (1 nM), 1.03; in the experiment with SORAFENIB (50 nM), 1.33; in the experiment with SORAFENIB (100 nM) it was 1.29; with SORAFENIB (500 nM), 1.36; with SORAFENIB (1000 nM), 1.29. Further, the surviving fraction stood at 1.04 ± 0.012 with MLN-4924 (0.5 nM); 1.11 ± 0.054 with MLN-4924 (1 nM); 1.11 ± 0.062 in the experiment with MLN-4924 (5 nM); 1.11 ± 0.032 with MLN-4924 (10 nM); 0.458 ± 0.03 with MLN-4924 (50 nM); 0.295 ± 0.021 with MLN-4924 (100 nM). The surviving fraction with MLN-4924 (500 nM) came to 0.154 ± 0.008; with MLN-4924 (1000 nM), 0.108 ± 0.0046.

Turning to HS578T BREAST, the surviving fraction with SORAFENIB (0.5 nM) was 0.671 ± 0.16; in the experiment with SORAFENIB (1 nM), 0.862 ± 0.077; with SORAFENIB (5 nM), 0.766 ± 0.015; in the experiment with SORAFENIB (10 nM), 0.776 ± 0.018; with SORAFENIB (50 nM), 0.831 ± 0.15; with SORAFENIB (100 nM), 0.794 ± 0.034. The surviving fraction with MLN-4924 (0.5 nM) was determined as 0.822 ± 0.14; with MLN-4924 (1 nM) it was 0.96 ± 0.14; with MLN-4924 (5 nM), 0.898 ± 0.05; with MLN-4924 (10 nM), 0.957 ± 0.11; in the experiment with MLN-4924 (50 nM), 0.63 ± 0.021; with MLN-4924 (100 nM), 0.494 ± 0.037. Also, the figures for the surviving fraction in the experiment with MLN-4924 (500 nM) and in the experiment with MLN-4924 (1000 nM) were 0.342 ± 0.04 and 0.326 ± 0.057, respectively.

With HCC70 BREAST, the surviving fraction in the experiment with SORAFENIB (0.5 nM) was 1.01 ± 0.069; with SORAFENIB (1 nM) it was 0.976 ± 0.082; with SORAFENIB (5 nM), 1.1 ± 0.057; with SORAFENIB (10 nM) it was 1.01 ± 0.032; with SORAFENIB (50 nM) it was 1.22 ± 0.019; with SORAFENIB (100 nM) it was 1.34 ± 0.081. For the same test system, the surviving fraction with SORAFENIB (500 nM) worked out at 1.33 ± 0.032; with SORAFENIB (1000 nM), 1.25 ± 0.16; in the experiment with MLN-4924 (0.5 nM), 1.06 ± 0.14; with MLN-4924 (1 nM), 1.09 ± 0.06; in the experiment with MLN-4924 (5 nM), 1.07 ± 0.066; in the experiment with MLN-4924 (10 nM) it was 0.96 ± 0.071. Also, the surviving fraction with MLN-4924 (50 nM) was 0.582 ± 0.041; with MLN-4924 (100 nM) it was 0.41 ± 0.029; with MLN-4924 (500 nM), 0.14 ± 0.037; with MLN-4924 (1000 nM), 0.103 ± 0.014.

With G292 BONE, the surviving fraction with SORAFENIB (0.5 nM) is 0.973 ± 0.051; with SORAFENIB (1 nM), 0.967 ± 0.034; with SORAFENIB (5 nM), 1.01 ± 0.02; with SORAFENIB (10 nM), 1.02 ± 0.04; in the experiment with SORAFENIB (50 nM) it was 1.01 ± 0.058; with SORAFENIB (100 nM), 0.96 ± 0.016. Moreover, the surviving fraction with SORAFENIB (500 nM) was 0.918 ± 0.025; with MLN-4924 (0.5 nM), 1.02 ± 0.031; with MLN-4924 (1 nM), 1 ± 0.048; with MLN-4924 (5 nM) it was 1.04 ± 0.017; with MLN-4924 (10 nM), 1.03 ± 0.054; with MLN-4924 (50 nM), 0.909 ± 0.049. Moreover, the values for the surviving fraction with MLN-4924 (100 nM), with MLN-4924 (500 nM) and in the experiment with MLN-4924 (1000 nM) were 0.623 ± 0.068, 0.295 ± 0.011 and 0.266 ± 0.019, respectively.
